Data from patent US5602106A, “16-membered macrolide derivatives” (priority 1993, dated 1997).
≈ marks a conversion by molar mass, not a printed value. Like-named read-outs stand apart in the source and are kept apart here.

Columns and labels:
Type in all cases: cell-based
test strains = assay: Antimicrobial activity in vitro, test strains overall; settings: for antimicrobial activities compared with compound (1): vs compound (1); for antimicrobial activities compared with starting materials (1), (2) and (33): 9-O-acylated vs free 9-hydroxyl
Protocol: (§1) The effect of the first aspect of the present invention resides in the creation of a novel and useful 16-membered macrolide derivative. Antimicrobial activities of the compounds of the present invention were determined by measuring minimum inhibitory concentration (MIC). Minimum inhibitory concentration was determined by the agar plate dilution method in the following manner.
(§2) Test strains were subjected to seed culture using Sensitivity test broth (STB, Nissui Pharmaceutical) except that the strains belonging to the genus Streptococcus, Branhamella and Haemophilus were cultured on blood agar plate. A 5 μl portion of cell suspension of the test strains having about 10^6 CFU/ml was inoculated into Sensitivity disk agar (SDA, Nissui Pharmaceutical) supplemented with 5% horse blood and incubated at 37° C. for 20 hours. Then, MIC was measured. […] Antimicrobial activities in vitro of the compounds (1) and (2) are shown in Table 1, and those of the compounds (3) and (4) in Table 3.

B. catarrhalis W-0500 = assay: MIC, agar plate dilution method; settings: Moraxella catarrhalis
Protocol: as §1, §2

B. catarrhalis W-0506 = assay: MIC, agar plate dilution method; settings: Moraxella catarrhalis
Protocol: as §1, §2

E. coli NIHJ JC-2 = assay: MIC, agar plate dilution method; settings: Escherichia coli, NIHJJC2, 20 h, 37° C., SDA with 5% horse blood, read-out: Antimicrobial activity (MIC)
Protocol: as §1, §2

H. influenzae Type b = assay: MIC, agar plate dilution method; settings: Haemophilus influenzae
Protocol: as §1, §2

K. pneumoniae PCI602 = assay: MIC, agar plate dilution method; settings: Klebsiella pneumoniae, 37° C., SDA with 5% horse blood, read-out: Antimicrobial activity (MIC)
Protocol: as §1, §2

M. luteus ATCC9341 = assay: MIC, agar plate dilution method; settings: Micrococcus luteus
Protocol: as §1, §2

S. aureus M126 = assay: MIC, agar plate dilution method; settings: Staphylococcus aureus, 37° C., 20 hours, SDA with 5% horse blood, read-out: Antimicrobial activity (MIC)
Protocol: as §1, §2

S. aureus MS15009/pMS99 = assay: MIC, agar plate dilution method; settings: Staphylococcus aureus, MS15009/PMS99, 20 h, read-out: Antimicrobial activity (MIC)
Protocol: as §1, §2

S. aureus MS15026 = assay: MIC, agar plate dilution method; settings: Staphylococcus aureus, 37° C., 20 hours, SDA with 5% horse blood, read-out: Antimicrobial activity (MIC)
Protocol: as §1, §2

S. aureus MS15027 = assay: MIC, agar plate dilution method; settings: Staphylococcus aureus
Protocol: as §1, §2

S. epidermidis ATCC14990 = assay: MIC, agar plate dilution method; settings: Staphylococcus epidermidis
Protocol: as §1, §2

S. pneumoniae Type 1 = assay: MIC, agar plate dilution method; settings: Streptococcus pneumoniae
Protocol: as §1, §2

S. pyogenes Cook = assay: MIC, agar plate dilution method; settings: Streptococcus pyogenes; 37° C., 20 hours, SDA with 5% horse blood; read-out: Antimicrobial activity (MIC)
Protocol: as §1, §2

E. faecalis W-73 = assay: MIC, agar plate dilution method; settings: Enterococcus faecalis, W73, 20 h, read-out: Antimicrobial activity (MIC)
Protocol: as §1, §2

S. aureus 209P JC-1 = assay: MIC, agar plate dilution method; settings: Staphylococcus aureus, 209P, 20 h
Protocol: as §1, §2

S. aureus M133 = assay: MIC, agar plate dilution method; settings: Staphylococcus aureus, M133, 20 h
Protocol: as §1, §2

S. aureus MS15009/pMS98 = assay: MIC, agar plate dilution method; settings: Staphylococcus aureus, MS15009/PMS98, 20 h, read-out: Antimicrobial activity (MIC), 37° C., 20 hours, SDA with 5% horse blood
Protocol: as §1, §2

S. pneumoniae IP692 = assay: MIC, agar plate dilution method; settings: Streptococcus pneumoniae, IP692, 20 h
Protocol: as §1, §2

[1] = W0500, 37° C., 20 hours, SDA with 5% horse blood, read-out: Antimicrobial activity (MIC)
[2] = W0506, 37° C., 20 hours, SDA with 5% horse blood, read-out: Antimicrobial activity (MIC)
[3] = 20 h, read-out: Antimicrobial activity (MIC), 37° C., 20 hours, SDA with 5% horse blood
[4] = 37° C., 20 hours, SDA with 5% horse blood, read-out: Antimicrobial activity (MIC)
[5] = ATCC9341, 20 h, read-out: Antimicrobial activity (MIC), 37° C., 20 hours, SDA with 5% horse blood
[6] = ATCC9341, 37° C., 20 hours, SDA with 5% horse blood, read-out: Antimicrobial activity (MIC)
[7] = MS15027, 20 h, read-out: Antimicrobial activity (MIC), 37° C., 20 hours, SDA with 5% horse blood
[8] = MS15027, 37° C., 20 hours, SDA with 5% horse blood, read-out: Antimicrobial activity (MIC)
[9] = ATCC14990, 20 h, read-out: Antimicrobial activity (MIC), 37° C., 20 hours, SDA with 5% horse blood
[10] = ATCC14990, 37° C., 20 hours, SDA with 5% horse blood, read-out: Antimicrobial activity (MIC)
[11] = TYPE1, 20 h, read-out: Antimicrobial activity (MIC), 37° C., 20 hours, SDA with 5% horse blood
[12] = TYPE1, 37° C., 20 hours, SDA with 5% horse blood, read-out: Antimicrobial activity (MIC)
[13] = read-out: Antimicrobial activity (MIC), 37° C., 20 hours, SDA with 5% horse blood

SMILES: CCOC(C)O[C@H]1/C=C/C=C/C[C@@H](C)OC(=O)C[C@@H](OC(=O)CC)[C@H](OC)[C@@H](O[C@@H]2O[C@H](C)[C@@H](O[C@H]3C[C@@](C)(OC)[C@@H](OC(=O)CC)[C@H](C)O3)[C@H](N(C)C)[C@H]2O)[C@@H](CC=O)C[C@H]1C (single isomer, unassigned) [(16H)]
- antimicrobial activities compared with compound (1) (test strains): inferior to those of the compound (1)

SMILES: CCOC(C)O[C@H]1/C=C/C=C/C[C@@H](C)OC(=O)C[C@@H](OC(=O)CC)[C@H](OC)[C@@H](O[C@@H]2O[C@H](C)[C@@H](O[C@H]3C[C@@](C)(OC)[C@@H](OC(=O)CC)[C@H](C)O3)[C@H](N(C)C)[C@H]2O)[C@@H](CC=O)C[C@H]1C (single isomer, unassigned) [(16L)]
- antimicrobial activities compared with compound (1) (test strains): inferior to those of the compound (1)

SMILES: CCC(=O)O[C@H]1[C@H](C)O[C@@H](O[C@H]2[C@H](N(C)C)[C@@H](O)[C@H](O[C@H]3[C@@H](CC=O)C[C@@H](C)[C@@H](OC(C)=O)/C=C/C=C/C[C@@H](C)OC(=O)C[C@@H](O)[C@@H]3OC)O[C@@H]2C)C[C@@]1(C)OC [(6), 9-O-acetyl-3"-O-methylleucomycin A7]
- antimicrobial activities compared with starting materials (1), (2) and (33) (test strains): strong antimicrobial activities by themselves though slightly lower than those of their starting materials

SMILES: CCCC(=O)O[C@H]1[C@H](C)O[C@@H](O[C@H]2[C@H](N(C)C)[C@@H](O)[C@H](O[C@H]3[C@@H](CC=O)C[C@@H](C)[C@@H](OC(C)=O)/C=C/C=C/C[C@@H](C)OC(=O)C[C@@H](O)[C@@H]3OC)O[C@@H]2C)C[C@@]1(C)OC [(39), 9-O-acetyl-3"-O-methylleucomycin A5]
- antimicrobial activities compared with starting materials (1), (2) and (33) (test strains): strong antimicrobial activities by themselves though slightly lower than those of their starting materials

SMILES: CCCC(=O)O[C@H]1[C@H](C)O[C@@H](O[C@H]2[C@H](N(C)C)[C@@H](O)[C@H](O[C@H]3[C@@H](CC=O)C[C@@H](C)[C@@H](OC(=O)CC)/C=C/C=C/C[C@@H](C)OC(=O)C[C@@H](O)[C@@H]3OC)O[C@@H]2C)C[C@@]1(C)OC [(40), 9-O-propionyl-3"-O-methylleucomycin A5]
- antimicrobial activities compared with starting materials (1), (2) and (33) (test strains): strong antimicrobial activities by themselves though slightly lower than those of their starting materials

SMILES: CCC(=O)O[C@H]1[C@H](C)O[C@@H](O[C@H]2[C@H](N(C)C)[C@@H](O)[C@H](O[C@H]3[C@@H](CC=O)C[C@@H](C)[C@@H](O)/C=C/C=C/C[C@@H](C)OC(=O)C[C@@H](O)[C@@H]3OC)O[C@@H]2C)C[C@@]1(C)O [LM-A7, leucomycin A7, reference compound]
- MIC (B. catarrhalis W-0500; W0500, 20 h, read-out: Antimicrobial activity (MIC), 37° C., 20 hours, SDA with 5% horse blood): 12.5 µg/mL (≈ 16.5 µM)
- MIC (B. catarrhalis W-0500; [1]): 0.78 µg/mL (≈ 1.03 µM)
- MIC (B. catarrhalis W-0506; W0506, 20 h, read-out: Antimicrobial activity (MIC), 37° C., 20 hours, SDA with 5% horse blood): 12.5 µg/mL (≈ 16.5 µM)
- MIC (B. catarrhalis W-0506; [2]): 0.78 µg/mL (≈ 1.03 µM)
- MIC (E. coli NIHJ JC-2): > 100 µg/mL
- MIC (H. influenzae Type b; [3]): 50 µg/mL (≈ 66 µM)
- MIC (H. influenzae Type b; [4]): 6.25 µg/mL (≈ 8.25 µM)
- MIC (K. pneumoniae PCI602; PCI602, 20 h): > 100 µg/mL
- MIC (M. luteus ATCC9341; [5]): 0.2 µg/mL (≈ 0.264 µM)
- MIC (M. luteus ATCC9341; [6]): 0.05 µg/mL (≈ 0.066 µM)
- MIC (S. aureus M126): > 100 µg/mL
- MIC (S. aureus MS15009/pMS99): > 100 µg/mL
- MIC (S. aureus MS15026): > 100 µg/mL
- MIC (S. aureus MS15027; [7]): 3.13 µg/mL (≈ 4.13 µM)
- MIC (S. aureus MS15027; [8]): 0.39 µg/mL (≈ 0.515 µM)
- MIC (S. epidermidis ATCC14990; [9]): 3.13 µg/mL (≈ 4.13 µM)
- MIC (S. epidermidis ATCC14990; [10]): 0.39 µg/mL (≈ 0.515 µM)
- MIC (S. pneumoniae Type 1; [11]): 0.2 µg/mL (≈ 0.264 µM)
- MIC (S. pneumoniae Type 1; [12]): 0.39 µg/mL (≈ 0.515 µM)
- MIC (S. pyogenes Cook): 0.39 µg/mL (≈ 0.515 µM)

SMILES: CCC(=O)O[C@@H]1CC(=O)O[C@H](C)C/C=C/C=C/[C@H](O)[C@H](C)C[C@H](CC=O)[C@H](O[C@@H]2O[C@H](C)[C@@H](O[C@H]3C[C@@](C)(O)[C@@H](OC(=O)CC)[C@H](C)O3)[C@H](N(C)C)[C@H]2O)[C@H]1OC [MDM, midecamycin A1, reference compound]
- MIC (B. catarrhalis W-0500; [1]): 3.13 µg/mL (≈ 3.85 µM)
- MIC (B. catarrhalis W-0506; [2]): 3.13 µg/mL (≈ 3.85 µM)
- MIC (E. faecalis W-73; 37° C., 20 hours, SDA with 5% horse blood): 3.13 µg/mL (≈ 3.85 µM)
- MIC (H. influenzae Type b; [4]): 25 µg/mL (≈ 30.7 µM)
- MIC (K. pneumoniae PCI602; PCI602, 20 hours): > 100 µg/mL
- MIC (M. luteus ATCC9341; [6]): 0.05 µg/mL (≈ 0.0614 µM)
- MIC (S. aureus 209P JC-1; [4]): 0.39 µg/mL (≈ 0.479 µM)
- MIC (S. aureus M126): > 100 µg/mL
- MIC (S. aureus M133; [4]): 0.78 µg/mL (≈ 0.958 µM)
- MIC (S. aureus MS15009/pMS98): 0.39 µg/mL (≈ 0.479 µM)
- MIC (S. aureus MS15009/pMS99): > 100 µg/mL
- MIC (S. aureus MS15026): > 100 µg/mL
- MIC (S. aureus MS15027; [8]): 0.78 µg/mL (≈ 0.958 µM)
- MIC (S. epidermidis ATCC14990; [10]): 0.78 µg/mL (≈ 0.958 µM)
- MIC (S. pneumoniae IP692; [4]): 0.39 µg/mL (≈ 0.479 µM)
- MIC (S. pneumoniae Type 1; [12]): 0.39 µg/mL (≈ 0.479 µM)

SMILES: CCC(=O)O[C@@H]1CC(=O)O[C@H](C)C/C=C/C=C/[C@H](O)[C@H](C)C[C@H](CC=O)[C@H](O[C@@H]2O[C@H](C)[C@@H](O[C@H]3C[C@@](C)(O)[C@@H](O)[C@H](C)O3)[C@H](N(C)C)[C@H]2O)[C@H]1OC [MDM-M1, midecamycin M1, reference compound]
- MIC (B. catarrhalis W-0500; [1]): 25 µg/mL (≈ 33 µM)
- MIC (B. catarrhalis W-0506; [2]): 25 µg/mL (≈ 33 µM)
- MIC (E. coli NIHJ JC-2): > 100 µg/mL
- MIC (E. faecalis W-73): 12.5 µg/mL (≈ 16.5 µM)
- MIC (H. influenzae Type b; [3]): 100 µg/mL (≈ 132 µM)
- MIC (K. pneumoniae PCI602; PCI602, 20 h): > 100 µg/mL
- MIC (M. luteus ATCC9341; [5]): 0.39 µg/mL (≈ 0.515 µM)
- MIC (S. aureus 209P JC-1; [13]): 6.25 µg/mL (≈ 8.25 µM)
- MIC (S. aureus M126): > 100 µg/mL
- MIC (S. aureus M133; [13]): 12.5 µg/mL (≈ 16.5 µM)
- MIC (S. aureus MS15009/pMS98): 6.25 µg/mL (≈ 8.25 µM)
- MIC (S. aureus MS15009/pMS99): > 100 µg/mL
- MIC (S. aureus MS15026): > 100 µg/mL
- MIC (S. aureus MS15027; [7]): 6.25 µg/mL (≈ 8.25 µM)
- MIC (S. epidermidis ATCC14990; [9]): 12.5 µg/mL (≈ 16.5 µM)
- MIC (S. pneumoniae IP692; [13]): 0.78 µg/mL (≈ 1.03 µM)
- MIC (S. pneumoniae Type 1; [11]): 0.78 µg/mL (≈ 1.03 µM)
- MIC (S. pyogenes Cook): 1.56 µg/mL (≈ 2.06 µM)
